Results on 4 compounds are retold here after US12433874B2 (PRESCIENCE BIOTECHNOLOGY INC., priority 2022, dated 2025).

Series [1] has as its system CT26 cells (murine colorectal carcinoma cell). The series is described as follows: CT26 mouse colon cancer model. It is filed as in vivo. To be noted: 5-FU 25 mg/kg Q3d*4, RAP-E 25 mg/kg Q3d*4.
Description: CT26 model on Balb/c mice was used as another animal model, classified as three groups: a control group (no drug), a comparative group (administration of 5-FU, dose: 25 mg/kg, Q3d*4) and the inventive group (administration of RAP-E formulation, dose: 25 mg/kg, Q3d*4). 6 week old Balb/c mice (BioLasco, Ilan, Taiwan) were inoculated subcutaneously with 1*10^5 CT26 cells (murine colorectal carcinoma cell). Following tumor inoculation, measuring the tumor size twice a week, and starting treatment when the tumor grows to 80-100 mm^3.
For series [2] the following is noted: BCS Class II drug; cited from earlier work.
Series [3] deals with SKOV3 cells (human ovarian cancer cell). Type of series: in vivo. To be noted: docetaxel 4 mg/kg Q3d*4; RAP-E 50 mg/kg Q3d*4. The text has this: Akt and mTOR phosphorylation are frequently detected in ovarian cancer, and SKOV3, an ovarian cancer cell line, is resistant to cis-platinum and doxorubicin.
The conditions of series [4]: tablet form; cited from earlier work.

As a reminder, the bioavailability is the share of a dose that reaches the circulation, judged against a reference dose that is usually intravenous.

For the compound `O=c1[nH]cc(F)c(=O)[nH]1` [5-FU], in series [1], the “Mean inhibition rate (tumor volume)” value is 11% and the “toxicity (body weight change)” value is listed as “significant weight loss”. For the same compound, the “Day 16 tumor inhibition rate” value in series [1] (day 16) worked out at 26%.
As for `CO[C@H]1C[C@@H]2CC[C@@H](C)[C@@](O)(O2)C(=O)C(=O)N2CCCC[C@H]2C(=O)O[C@H]([C@H](C)C[C@@H]2CC[C@@H](O)[C@H](OC)C2)CC(=O)[C@H](C)/C=C(\C)[C@@H](O)[C@@H](OC)C(=O)[C@H](C)C[C@H](C)/C=C/C=C/C=C/1C` [Rapamycin], the permeability entry in series [2] is reported as “high permeability”.
On to `CC(=O)O[C@@]12CO[C@@H]1C[C@H](O)[C@@]1(C)C(=O)[C@H](O)C3=C(C)[C@@H](OC(=O)[C@H](O)[C@@H](NC(=O)OC(C)(C)C)c4ccccc4)C[C@@](O)([C@@H](OC(=O)c4ccccc4)[C@H]21)C3(C)C` [docetaxel], for which the “Mean inhibition rate (tumor volume)” value in series [3] was 53%.
Turning to `CO[C@H]1C[C@@H]2CC[C@@H](C)[C@@](O)(O2)C(=O)C(=O)N2CCCC[C@H]2C(=O)O[C@H]([C@H](C)C[C@@H]2CC[C@@H](OCCO)[C@H](OC)C2)CC(=O)[C@H](C)/C=C(\C)[C@@H](O)[C@@H](OC)C(=O)[C@H](C)C[C@H](C)/C=C/C=C/C=C/1C` [everolimus], the bioavailability in series [4] is about 20%.
